Assay results reported in US20090234014A1, “Naphthalene-Disulfonamides Useful for the Treatment of Inflammation” (priority 2005, published 2009).

target: T1, mPGES-1 (Homo sapiens, UniProt O14684); assay: mPGES-1 assay: conversion of PGH2 to PGE2, PGE2 measured by HPLC; format: biochemical; conditions: mPGES-1 expressed in E. coli, membrane fraction; 25 min preincubation with inhibitor, 60 s with PGH2, room temperature; read-out: IC50 values
T1 construct: made in house; host or cells: E. coli (membrane fraction)
T1 sequence (O14684 1-152): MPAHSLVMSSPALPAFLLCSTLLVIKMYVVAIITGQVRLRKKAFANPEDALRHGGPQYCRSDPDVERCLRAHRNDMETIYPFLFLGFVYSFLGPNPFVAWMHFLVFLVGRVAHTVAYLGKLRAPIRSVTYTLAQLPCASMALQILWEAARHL
Procedure: In the assay mPGES-1 catalyses the reaction where the substrate PGH2 is converted to PGE2. mPGES-1 is expressed in E. coli and the membrane fraction is dissolved in 20 mM NaPi-buffer pH 8.0 and stored at −80° C. In the assay mPGES-1 is dissolved in 0.1M KPi-buffer pH 7.35 with 2.5 mM glutathione. The stop solution consists of H2O/MeCN (7/3), containing FeCl2 (25 mM) and HCl (0.15 M). The assay is performed at room temperature in 96-well plates. Analysis of the amount of PGE2 is performed with reversed phase HPLC (Waters 2795 equipped with a 3.9×150 mm C18 column). The mobile phase consists of H2O/MeCN (7/3), containing TFA (0.056%), and absorbance is measured at 195 nm with a Waters 2487 UV-detector.
The following is added chronologically to each well: • 1. 100 μL mPGES-1 in KPi-buffer with glutathione. Total protein concentration: 0.02 mg/mL. • 2. 1 μL inhibitor in DMSO. Incubation of the plate at room temperature for 25 minutes. • 3. 4 μL of a 0.25 mM PGH2 solution. Incubation of the plate at room temperature for 60 seconds. • 4. 100 μL stop solution. • 180 μL per sample is analyzed with HPLC.

| Compound | IC50 [µM] |
| --- | --- |
| Cc1cc(C)c(NS(=O)(=O)c2cc(S(=O)(=O)Nc3c(C)cc(C)cc3C)c3cc(O)ccc3c2)c(C)c1 [Example 3, N^1,N^3-di(mesityl)-7-hydroxynaphthalene-1,3-disulfonamide] | 1.1 |
| Cc1ccc(Cl)cc1NS(=O)(=O)c1cc(S(=O)(=O)Nc2cc(Cl)ccc2C)c2cc(O)ccc2c1 [Example 7, N^1,N^3-di(5-chloro-2-methylphenyl)-7-hydroxynaphthalene-1,3-disulfonamide] | 1.2 |
| O=S(=O)(Nc1ccccc1C(F)(F)F)c1cc(S(=O)(=O)Nc2ccccc2C(F)(F)F)c2cc(O)ccc2c1 [Example 9, N^1,N^3-di(2-trifluoromethylphenyl)-7-hydroxynaphthalene-1,3-disulfonamide] | 4.1 |
| Cc1cccc(C)c1NS(=O)(=O)c1cc(S(=O)(=O)Nc2c(C)cccc2C)c2ccccc2c1 [Example 11, N^1,N^3-di(2,6-xylyl)naphthalene-1,3-disulfonamide] | 1.7 |
| Cc1c(Cl)cccc1NS(=O)(=O)c1cc(S(=O)(=O)Nc2cccc(Cl)c2C)c2ccccc2c1 [Example 15, N^1,N^3-di(3-chloro-2-methylphenyl)naphthalene-1,3-disulfonamide] | 1.7 |
| Cc1ccc(Cl)cc1NS(=O)(=O)c1cc(S(=O)(=O)Nc2cc(Cl)ccc2C)c2ccccc2c1 [Example 16, N^1,N^3-di(5-chloro-2-methylphenyl)naphthalene-1,3-disulfonamide] | 1.3 |
| Cc1ccc(NS(=O)(=O)c2cc(S(=O)(=O)Nc3ccc(C)cc3)c3ccccc3c2)cc1 [Example 20, N^1,N^3-di(p-tolyl)naphthalene-1,3-disulfonamide] | 3.7 |

same assay, conditions: mPGES-1 expressed in E. coli, membrane fraction; stated as 10 μM or below; read-out: concentration exhibiting 50% inhibition of mPGES-1

| Compound | IC50 [µM] |
| --- | --- |
| O=S(=O)(Nc1ccccc1)c1cc(S(=O)(=O)Nc2ccccc2)c2cc(O)ccc2c1 [N^1,N^3-Diphenyl-7-hydroxynaphthalene-1,3-disulfonamide] | ≤ 10 |
